Measurements as given in BindingDB's records for doi:10.1021/jm2012062 (Universidade Federal De Santa Catarina, 2012).

Molecular target: T1, Low molecular weight protein-tyrosine phosphatase A (Mycobacterium tuberculosis (strain ATCC 25618 / H37Rv), UniProt P9WIA1)
T1 sequence (P9WIA1 whole entry): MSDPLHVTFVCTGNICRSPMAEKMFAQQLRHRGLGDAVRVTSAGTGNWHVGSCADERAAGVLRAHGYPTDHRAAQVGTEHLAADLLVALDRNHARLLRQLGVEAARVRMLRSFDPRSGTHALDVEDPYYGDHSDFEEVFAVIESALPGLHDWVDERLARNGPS
Assay: Inhibition of Mycobacterium tuberculosis PTP-A

## C=c1[nH]c(=Cc2[nH]c(-c3ccc[nH]3)cc2OC)cc1CCCCC [PRODIGIOSIN]
  IC50: 8.8 µM

## COc1cc(-c2[nH]ccc2Cl)oc1C1=c2[nH]c3cc2[C@H](C(C)C)[C@H]1CCCCCCCC=3
  IC50: 8.8 µM
